From publication PMC7402526, “An in vitro quantitative systems pharmacology approach for deconvolving mechanisms of drug-induced, multilineage cytopenias” (PLoS Computational Biology, 2020)

Assays:
[1] = test system: total viable cells (totalViableCells); test: MLTA, total live cells concentration-response; type: cell-based; details: Homo sapiens, 144 h, 6 days, normalized to vehicle control, read-out: total_live normalized cell count
How it was run: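 Freeze-thawed primary human bone marrow CD34+ cells in SFEM II with cytokine cocktail, drug added day 0, 6 days at 37°C, 5% CO2. Live/dead counts by 17-parameter flow cytometry with DAPI exclusion, bead-normalized, volume-corrected to cells/mL. Normalized per donor to mean of six vehicle wells; 2–7 donors pooled.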

[2] = test system: granulocyte-macrophage progenitor (GMPs); test: MLTA, GMPs: concentration-response and QSP model fit; type: cell-based, human; details: Homo sapiens, 144 h, 6 days, normalized to vehicle control, read-out: GMPs normalized cell count
How it was run: (§1)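 Freeze-thawed primary human bone marrow CD34+ cells were grown in SFEM II with a multi-lineage cytokine cocktail, drug added day 0, six days at 37°C. Lineage counts came from 17-parameter flow with TruCount beads, vehicle-normalized per donor, then fitted by an Emax-based QSP model.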

[3] = test system: early erythroid cells (Eryth I); test: MLTA, ErythI: concentration-response and QSP model fit; type: cell-based, human
How it was run: (§2)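 Parameters come from fitting an Emax-based QSP model, with L1 regularization and Emax ranging 0–2, to vehicle-normalized, bead-corrected flow cytometry counts. Counts came from human bone marrow CD34+ cells treated from day 0 through a 6-day multi-lineage cytokine culture in SFEM II, using 2–7 donors per drug.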

[4] = test system: granulocyte progenitor (Gran-lin prog); test: MLTA, GranP: concentration-response and QSP model fit; type: cell-based, human; details: Homo sapiens, 144 h
How it was run: as §2

B cells (B-lin) = test: MLTA, B-lin: concentration-response and QSP model fit; type: cell-based, human; details: Homo sapiens, B-cell, 144 h
How it was run: as §1

MK cells (MK-lin) = test: MLTA, MK: concentration-response and QSP model fit; type: cell-based, human; details: Homo sapiens, 144 h
How it was run: as §1

[5] = test system: multi-potent progenitors (MPPs); test: MLTA, MPPs: concentration-response and QSP model fit; type: cell-based, human; details: Homo sapiens, 144 h
How it was run: as §1

[6] = test system: lymphocyte progenitors (LymP); test: MLTA, LymP: concentration-response and QSP model fit; type: cell-based, human; details: Homo sapiens, Lymphocyte, 144 h
How it was run: as §1

[7] = QSP model fit of 6-day MLTA data

For CC(=O)O[C@H]1C(=O)[C@@]2(C)[C@H]([C@H](OC(=O)c3ccccc3)[C@]3(O)C[C@H](OC(=O)[C@H](O)[C@@H](NC(=O)c4ccccc4)c4ccccc4)C(C)=C1C3(C)C)[C@]1(OC(C)=O)CO[C@@H]1C[C@@H]2O [paclitaxel], which viability at 0.0002 µM ([1]; dose 0.2 nM) is on record?
The viability at 0.0002 µM was 102%.

What about the viability at 0.001 µM ([1]; dose 1 nM) of the same molecule?
Its viability at 0.001 µM is 110%.

And the viability at 0.005 µM ([1]; dose 5 nM)?
The viability at 0.005 µM was 75.9%.

What about the viability at 0.025 µM ([1]; dose 25 nM) of the same molecule?
Its viability at 0.025 µM is 1.22%.

And the viability at 0.1 µM ([1]; dose 100 nM)?
Its viability at 0.1 µM is 0.201%.

And the viability at 0.5 µM ([1]; dose 500 nM)?
The viability at 0.5 µM was 0.291%.

What about the viability at 2.5 µM ([1]; dose 2500 nM) of the same molecule?
The viability at 2.5 µM was 0.232%.

What about the activity at 0.0002 µM ([2]; dose 0.2 nM) of the same molecule?
The activity at 0.0002 µM was 126%.

And the activity at 0.001 µM ([2]; dose 1 nM)?
The activity at 0.001 µM was 119%.

What about the activity at 0.005 µM ([2]; dose 5 nM) of the same molecule?
Its activity at 0.005 µM is 109%.

What about the activity at 0.025 µM ([2]; dose 25 nM) of the same molecule?
Its activity at 0.025 µM is 3.34%.

And the activity at 0.1 µM ([2]; dose 100 nM)?
Its activity at 0.1 µM is 0.101%.

What about the activity at 0.5 µM ([2]; dose 500 nM) of the same molecule?
Its activity at 0.5 µM is 0.687%.

What about the activity at 2.5 µM ([2]; dose 2500 nM) of the same molecule?
The activity at 2.5 µM was 0.327%.

And the EC50 ([3]; Homo sapiens, 144 h, QSP model fit of 6-day MLTA data, read-out: EC50ErythI)?
Its EC50 is 15.4 nM.

And the activity at 0.0002 µM ([3]; Homo sapiens, 144 h, dose 0.2 nM, 6 days, normalized to vehicle control, read-out: ErythI normalized cell count)?
The activity at 0.0002 µM was 124%.

What about the activity at 0.001 µM ([3]; Homo sapiens, 144 h, dose 1 nM, 6 days, normalized to vehicle control, read-out: ErythI normalized cell count) of the same molecule?
Its activity at 0.001 µM is 112%.

And the activity at 0.005 µM ([3]; Homo sapiens, 144 h, dose 5 nM, 6 days, normalized to vehicle control, read-out: ErythI normalized cell count)?
The activity at 0.005 µM was 83.5%.

And the activity at 0.025 µM ([3]; Homo sapiens, 144 h, dose 25 nM, 6 days, normalized to vehicle control, read-out: ErythI normalized cell count)?
Its activity at 0.025 µM is 2.87%.

What about the activity at 0.1 µM ([3]; Homo sapiens, 144 h, dose 100 nM, 6 days, normalized to vehicle control, read-out: ErythI normalized cell count) of the same molecule?
Its activity at 0.1 µM is 0.445%.

And the activity at 0.5 µM ([3]; Homo sapiens, 144 h, dose 500 nM, 6 days, normalized to vehicle control, read-out: ErythI normalized cell count)?
The activity at 0.5 µM was 0.574%.

What about the activity at 2.5 µM ([3]; Homo sapiens, 144 h, dose 2500 nM, 6 days, normalized to vehicle control, read-out: ErythI normalized cell count) of the same molecule?
Its activity at 2.5 µM is 0.379%.

And the Emax ([3]; Homo sapiens, 144 h, parameter from QSP model fitting, read-out: Emax_drug_ErythroidI)?
The Emax was 147%.

And the “EmaxCK,ErythI” value ([3]; cell-killing component, max(0, EmaxT-1))?
The value was 0.466 day⁻¹.

What about the activity at 0.0002 µM ([4]; dose 0.2 nM, 6 days, normalized to vehicle control, read-out: GranPs normalized cell count) of the same molecule?
Its activity at 0.0002 µM is 114%.

And the activity at 0.001 µM ([4]; dose 1 nM, 6 days, normalized to vehicle control, read-out: GranPs normalized cell count)?
The activity at 0.001 µM was 112%.

And the activity at 0.005 µM ([4]; dose 5 nM, 6 days, normalized to vehicle control, read-out: GranPs normalized cell count)?
Its activity at 0.005 µM is 106%.

And the activity at 0.025 µM ([4]; dose 25 nM, 6 days, normalized to vehicle control, read-out: GranPs normalized cell count)?
The activity at 0.025 µM was 0.213%.

And the activity at 0.1 µM ([4]; dose 100 nM, 6 days, normalized to vehicle control, read-out: GranPs normalized cell count)?
The activity at 0.1 µM was 0.0154%.

What about the activity at 0.5 µM ([4]; dose 500 nM, 6 days, normalized to vehicle control, read-out: GranPs normalized cell count) of the same molecule?
The activity at 0.5 µM was 0.032%.

And the activity at 2.5 µM ([4]; dose 2500 nM, 6 days, normalized to vehicle control, read-out: GranPs normalized cell count)?
Its activity at 2.5 µM is 0.0153%.

What about the Emax ([4]; parameter from QSP model fitting, read-out: Emax_drug_GranP) of the same molecule?
Its Emax is 0.04%.

And the EC50 (B cells (B-lin); [7])?
Its EC50 is 36.7 nM.

What about the activity at 0.0002 µM (B cells (B-lin); dose 0.2 nM, 6 days, normalized to vehicle control, read-out: B-lin normalized cell count) of the same molecule?
The activity at 0.0002 µM was 102%.

What about the activity at 0.001 µM (B cells (B-lin); dose 1 nM, 6 days, normalized to vehicle control, read-out: B-lin normalized cell count) of the same molecule?
The activity at 0.001 µM was 109%.

What about the activity at 0.005 µM (B cells (B-lin); dose 5 nM, 6 days, normalized to vehicle control, read-out: B-lin normalized cell count) of the same molecule?
Its activity at 0.005 µM is 75.9%.

What about the activity at 0.025 µM (B cells (B-lin); dose 25 nM, 6 days, normalized to vehicle control, read-out: B-lin normalized cell count) of the same molecule?
Its activity at 0.025 µM is 1.34%.

And the activity at 0.1 µM (B cells (B-lin); dose 100 nM, 6 days, normalized to vehicle control, read-out: B-lin normalized cell count)?
The activity at 0.1 µM was 0.231%.

What about the activity at 0.5 µM (B cells (B-lin); dose 500 nM, 6 days, normalized to vehicle control, read-out: B-lin normalized cell count) of the same molecule?
The activity at 0.5 µM was 0.372%.

And the activity at 2.5 µM (B cells (B-lin); dose 2500 nM, 6 days, normalized to vehicle control, read-out: B-lin normalized cell count)?
Its activity at 2.5 µM is 0.335%.

What about the Emax (B cells (B-lin); parameter from QSP model fitting, read-out: Emax_drug_B) of the same molecule?
Its Emax is 91.4%.

And the EC50 (MK cells (MK-lin); [7])?
Its EC50 is 51.7 nM.

What about the activity at 0.0002 µM (MK cells (MK-lin); dose 0.2 nM, 6 days, normalized to vehicle control, read-out: MK normalized cell count) of the same molecule?
The activity at 0.0002 µM was 108%.

What about the activity at 0.001 µM (MK cells (MK-lin); dose 1 nM, 6 days, normalized to vehicle control, read-out: MK normalized cell count) of the same molecule?
Its activity at 0.001 µM is 110%.

And the activity at 0.005 µM (MK cells (MK-lin); dose 5 nM, 6 days, normalized to vehicle control, read-out: MK normalized cell count)?
Its activity at 0.005 µM is 111%.

What about the activity at 0.025 µM (MK cells (MK-lin); dose 25 nM, 6 days, normalized to vehicle control, read-out: MK normalized cell count) of the same molecule?
Its activity at 0.025 µM is 9.64%.

And the activity at 0.1 µM (MK cells (MK-lin); dose 100 nM, 6 days, normalized to vehicle control, read-out: MK normalized cell count)?
The activity at 0.1 µM was 0.962%.

What about the activity at 0.5 µM (MK cells (MK-lin); dose 500 nM, 6 days, normalized to vehicle control, read-out: MK normalized cell count) of the same molecule?
Its activity at 0.5 µM is 0.754%.

And the activity at 2.5 µM (MK cells (MK-lin); dose 2500 nM, 6 days, normalized to vehicle control, read-out: MK normalized cell count)?
Its activity at 2.5 µM is 0.792%.

And the Emax (MK cells (MK-lin); parameter from QSP model fitting, read-out: Emax_drug_MK)?
The Emax was 25.9%.

What about the activity at 0.0002 µM ([5]; dose 0.2 nM, 6 days, normalized to vehicle control, read-out: MPPs normalized cell count) of the same molecule?
The activity at 0.0002 µM was 78.7%.

What about the activity at 0.001 µM ([5]; dose 1 nM, 6 days, normalized to vehicle control, read-out: MPPs normalized cell count) of the same molecule?
Its activity at 0.001 µM is 90%.

What about the activity at 0.005 µM ([5]; dose 5 nM, 6 days, normalized to vehicle control, read-out: MPPs normalized cell count) of the same molecule?
Its activity at 0.005 µM is 71.3%.

What about the activity at 0.025 µM ([5]; dose 25 nM, 6 days, normalized to vehicle control, read-out: MPPs normalized cell count) of the same molecule?
The activity at 0.025 µM was 28%.

And the activity at 0.1 µM ([5]; dose 100 nM, 6 days, normalized to vehicle control, read-out: MPPs normalized cell count)?
Its activity at 0.1 µM is 2.32%.

And the activity at 0.5 µM ([5]; dose 500 nM, 6 days, normalized to vehicle control, read-out: MPPs normalized cell count)?
Its activity at 0.5 µM is 0.649%.

And the activity at 2.5 µM ([5]; dose 2500 nM, 6 days, normalized to vehicle control, read-out: MPPs normalized cell count)?
The activity at 2.5 µM was 0.406%.

What about the Emax ([5]; parameter from QSP model fitting, read-out: Emax_drug_MPP) of the same molecule?
Its Emax is 0.18%.

And the activity at 0.0002 µM ([6]; dose 0.2 nM, 6 days, normalized to vehicle control, read-out: LymP normalized cell count)?
The activity at 0.0002 µM was 122%.

And the activity at 0.001 µM ([6]; dose 1 nM, 6 days, normalized to vehicle control, read-out: LymP normalized cell count)?
Its activity at 0.001 µM is 143%.

And the activity at 0.005 µM ([6]; dose 5 nM, 6 days, normalized to vehicle control, read-out: LymP normalized cell count)?
Its activity at 0.005 µM is 61.3%.

What about the activity at 0.025 µM ([6]; dose 25 nM, 6 days, normalized to vehicle control, read-out: LymP normalized cell count) of the same molecule?
The activity at 0.025 µM was 9.53%.

And the activity at 0.1 µM ([6]; dose 100 nM, 6 days, normalized to vehicle control, read-out: LymP normalized cell count)?
The activity at 0.1 µM was 5.4%.

And the activity at 0.5 µM ([6]; dose 500 nM, 6 days, normalized to vehicle control, read-out: LymP normalized cell count)?
The activity at 0.5 µM was 7.34%.

What about the activity at 2.5 µM ([6]; dose 2500 nM, 6 days, normalized to vehicle control, read-out: LymP normalized cell count) of the same molecule?
Its activity at 2.5 µM is 9.6%.

And the Emax ([6]; parameter from QSP model fitting, read-out: Emax_drug_LymP)?
Its Emax is 0.16%.
